This assay has as its system SK-OV-3 cells. The assay can be described thus: Effect of compounds on tryptophan catabolism in SK-OV-3 cell line (inhibition of kynurenine production, LC-MS/MS). Type of assay: cell-based. To be noted: SK-OV-3 cell line, 24 h incubation, kynurenine in supernatant by LC-MS/MS, read-out: IC50 Ranges (ic50 values for inhibition of Kynurenine production). A digest of the protocol:
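Cells seeded overnight in McCoy's 5A/10% FBS, then switched to DMEM F-12 with 6 mg/mL L-tryptophan; compounds added at 8 3-fold dilutions from 30 μM, in duplicate, 24 h at 37 °C. Supernatant kynurenine measured by LC-MS/MS; ATP-based viability run in parallel; IC50 from % inhibition of Kyn production.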

SMILES strings stand for the structures. pIC50: −log10 of the molar value. Where two headings read alike, the source gives them in different places.

In general, pIC50 refers to the IC50 on a negative log10 scale, so that one unit is a factor of ten.

Consider `Cc1ccc(CN(C(=O)Nc2ccc(Cl)cc2F)C2CCCC2)o1` [Compound 172, 3-(4-chloro-2-fluoro-phenyl)-1-cyclopentyl-1-[(5-methyl-2-furyl)methyl]urea], for which the pIC50 (Homo sapiens, SK-OV-3, 24 h) is 6.30 to 7.00.

Consider `N#Cc1ccc(NC(=O)N(Cc2ccc3ncsc3c2)C2CCOCC2)cc1` [Compound 265, 1-(1,3-benzothiazol-6-ylmethyl)-3-(4-cyanophenyl)-1-tetrahydropyran-4-yl-urea], for which the pIC50 (Homo sapiens, SK-OV-3, 24 h) was 5.30 to 6.00.

Consider `O=C(Nc1ccc(F)c(F)c1)N(Cc1ccco1)C1CCCC1` [Compound 30, 1-cyclopentyl-3-(3,4-difluorophenyl)-1-(2-furylmethyl)urea], for which the negative-log IC50 (pIC50) (Homo sapiens, SK-OV-3, 24 h) was 6.30 to 7.00.

Turning to `Cc1nc(C)c(CN(C(=O)Nc2ccc(F)c(F)c2)C2CCCC2)s1` [Compound 171, 1-cyclopentyl-1-[(2,4-dimethylthiazol-5-yl)methyl]-3-(3,4-difluorophenyl)-urea], the pIC50 (Homo sapiens, SK-OV-3, 24 h) is 5.30 to 6.00.

Consider `NC(=O)c1cc(CN(C(=O)Nc2ccc(F)cc2)C2CCCC2)ccc1F` [Compound 122, 5-[[cyclopentyl-[(4-fluorophenyl)carbamoyl]amino]methyl]-2-fluoro-benzamide], for which the negative logarithm of the IC50 (pIC50) (Homo sapiens, SK-OV-3, 24 h) is 5.30 to 6.00.

For `Cc1ccc(CN(C(=O)Nc2ccc(N3CCCC3=O)cc2)C2CCCC2)o1` [Compound 103, 1-cyclopentyl-1-[(5-methyl-2-furyl)methyl]-3-[4-(2-oxopyrrolidin-1-yl)phenyl]urea], the pIC50 (Homo sapiens, SK-OV-3, 24 h) is 5.30 to 6.00.

For `Cc1ccc(CN(C(=O)NCc2ccc(C#N)cc2)C2CCCC2)o1` [Compound 96, 3-[(4-cyanophenyl)methyl]-1-cyclopentyl-1-[(5-methyl-2-furyl)methyl]urea], the pIC50 (Homo sapiens, SK-OV-3, 24 h) was under 5.30.

As to `Cn1ncc(CN(C(=O)Nc2ccc(F)cc2)C2CCCC2)c1Cl` [Compound 44, 1-[(5-chloro-1-methyl-pyrazol-4-yl)methyl]-1-cyclopentyl-3-(4-fluorophenyl) urea], where the note is “Homo sapiens, SK-OV-3, 24 h”, the pIC50 is 6.00 to 6.30.

Consider `Cc1ccc(CN(C(=O)Nc2ccccc2)C2CC2)o1` [Compound 167, 1-cyclopropyl-1-[(5-methyl-2-furyl)methyl]-3-phenyl-urea], for which the pIC50 (Homo sapiens, SK-OV-3, 24 h) is 5.30 to 6.00.

As for `Cc1ccc(CN(C(=O)Nc2ccc(OC(F)F)cc2)c2cnoc2C)o1` [Compound 301, 3-[4-(difluoromethoxy)phenyl]-1-[(5-methyl-2-furyl)methyl]-1-(5-methylisoxazol-4-yl)urea], for the setting “Homo sapiens, SK-OV-3, 24 h”, the pIC50 is over 7.00.

As for `C#Cc1cnc(NC(=O)N(Cc2ccc(C)o2)C2CCCC2)nc1` [Compound 17, 1-cyclopentyl-3-(5-ethynylpyrimidin-2-yl)-1-[(5-methyl-2-furyl)methyl]urea], the pIC50 (Homo sapiens, SK-OV-3, 24 h) is 6.30 to 7.00.

As for `O=C(Nc1ccc(Cl)cc1)N(Cc1ccncc1)C1CCCC1` [Compound 76, 3-(4-chlorophenyl)-1-cyclopentyl-1-(4-pyridylmethyl)urea], where the note is “Homo sapiens, SK-OV-3, 24 h”, the pIC50 is 6.00 to 6.30.

`COc1ccc(CN(C(=O)Nc2ccc(F)cc2)C2CCCC2)cc1C` [Compound 48, 1-cyclopentyl-3-(4-fluorophenyl)-1-[(4-methoxy-3-methyl-phenyl)methyl]urea]: the negative-log IC50 (pIC50) (Homo sapiens, SK-OV-3, 24 h) was 6.30 to 7.00.

As to `CC1(CN(C(=O)Nc2ccccc2)C2CCCC2)CCNCC1` [Compound 85, 1-cyclopentyl-1-[(4-methyl-4-piperidyl)methyl]-3-phenyl-urea], the pIC50 (Homo sapiens, SK-OV-3, 24 h) is 5.30 to 6.00.

Take `Cc1ccc(CN(C(=O)Nc2ccc(Cl)cc2)C2CC3(COC3)C2)o1` [Compound 286, 3-(4-chlorophenyl)-1-[(5-methyl-2-furyl)methyl]-1-(2-oxaspiro[3.3]heptan-6-yl)urea]: for the setting “Homo sapiens, SK-OV-3, 24 h”, the pIC50 was 5.30 to 6.00.

Take `Cc1ccc(CN(C(=O)Nc2ccc(Cl)cc2)c2csnc2C)o1` [Compound 328, 3-(4-chlorophenyl)-1-[(5-methyl-2-furyl)methyl]-1-(3-methylisothiazol-4-yl)urea]: the negative-log IC50 (pIC50) (Homo sapiens, SK-OV-3, 24 h) was over 7.00.

Turning to `CC1(CN(C(=O)Nc2ccccc2)C2CCCC2)CCN(C(=O)OC(C)(C)C)CC1` [Compound 77, tert-butyl 4-[[cyclopentyl(phenylcarbamoyl)amino]methyl]-4-methyl-piperidine-1-carboxylate], the pIC50 (Homo sapiens, SK-OV-3, 24 h) was 6.30 to 7.00.

`Cc1ccc(CN(C(=O)Nc2ccccc2)c2ncco2)o1` [Compound 179, 1-[(5-methyl-2-furyl)methyl]-1-oxazol-2-yl-3-phenyl-urea]: where the note is “Homo sapiens, SK-OV-3, 24 h”, the negative logarithm of the IC50 (pIC50) was under 5.30.

`Cc1nocc1N(Cc1cccc(C#N)n1)C(=O)Nc1ccc(Cl)cc1` [Compound 313, 3-(4-chlorophenyl)-1-[(6-cyano-2-pyridyl)methyl]-1-(3-methylisoxazol-4-yl)urea]: the pIC50 (Homo sapiens, SK-OV-3, 24 h) was 6.30 to 7.00.

With `CCc1c(C)sc2c1CCN(C(=O)Nc1cc(C)cc(C)c1)C2c1ccccc1` (racemic) [Compound 194, N-(3,5-dimethylphenyl)-3-ethyl-2-methyl-7-phenyl-5,7-dihydro-4H-thieno[2,3-c]pyridine-6-carboxamide], the pIC50 (Homo sapiens, SK-OV-3, 24 h) is 6.30 to 7.00.

As for `Cc1ccc(CN(C(=O)Nc2ccc(-c3ccccc3)cc2)C2CCCC2)o1` [Compound 150, 1-cyclopentyl-1-[(5-methyl-2-furyl)methyl]-3-(4-phenylphenyl)urea], the pIC50 (Homo sapiens, SK-OV-3, 24 h) was 6.30 to 7.00.

`O=C(Nc1ccncc1)N(Cc1cccs1)C1CCCC1` [Compound 11, 1-cyclopentyl-3-(4-pyridyl)-1-(2-thienylmethyl)urea]: the pIC50 (Homo sapiens, SK-OV-3, 24 h) was 5.30 to 6.00.

For `Cc1ccc(CN(C(=O)Nc2nc(-c3ccccc3)cs2)C2CCCC2)o1` [Compound 129, 1-cyclopentyl-1-[(5-methyl-2-furyl)methyl]-3-(4-phenylthiazol-2-yl)urea], the pIC50 (Homo sapiens, SK-OV-3, 24 h) was 5.30 to 6.00.

As to `COc1ccc(CN(C(=O)Nc2ccccc2)C2CCCC2)cc1C` [Compound 45, 1-cyclopentyl-1-[(4-methoxy-3-methyl-phenyl)methyl]-3-phenyl-urea], the pIC50 (Homo sapiens, SK-OV-3, 24 h) is 6.30 to 7.00.

With `O=C(Nc1ccccc1)N(Cc1ccco1)C1CCCC1` [Compound 28, 1-cyclopentyl-1-(2-furylmethyl)-3-phenyl-urea], the pIC50 (Homo sapiens, SK-OV-3, 24 h) was 6.00 to 6.30.

For `CN(Cc1cccs1)C(=O)Nc1ccc(Cl)c(Cl)c1` [Compound 200, 3-(3,4-dichlorophenyl)-1-methyl-1-(2-thienylmethyl)urea], the negative logarithm of the IC50 (pIC50) (Homo sapiens, SK-OV-3, 24 h) is 5.30 to 6.00.

`O=C(Nc1ccc(F)cc1)N(Cc1cnoc1)C1CCCC1` [Compound 62, 1-cyclopentyl-3-(4-fluorophenyl)-1-(isoxazol-4-ylmethyl)urea]: where the note is “Homo sapiens, SK-OV-3, 24 h”, the pIC50 was under 5.30.

`N#Cc1ccc(NC(=O)N(Cc2ccn3ccnc3n2)C2CCC2)cc1` [Compound 274, 3-(4-cyanophenyl)-1-cyclobutyl-1-(imidazo[1,2-a]pyrimidin-7-ylmethyl)urea]: for the setting “Homo sapiens, SK-OV-3, 24 h”, the pIC50 was 5.30 to 6.00.

Regarding `N#Cc1ccc(NC(=O)N(Cc2cc3ccccc3o2)C2CCC2)cc1` [Compound 234, 1-(benzofuran-2-ylmethyl)-3-(4-cyanophenyl)-1-cyclobutyl-urea], where the note is “Homo sapiens, SK-OV-3, 24 h”, the pIC50 is over 7.00.

As to `N#Cc1ccc(NC(=O)N(Cc2cc3ccccn3n2)C2CCC2)cc1` [Compound 207, 3-(4-cyanophenyl)-1-cyclobutyl-1-(pyrazolo[1,5-a]pyridin-2-ylmethyl)urea], under “Homo sapiens, SK-OV-3, 24 h”, the pIC50 is 6.30 to 7.00.

As for `Cc1ccc(CN(C(=O)Nc2ncc(Br)s2)C2CCCC2)o1` [Compound 161, 3-(5-bromothiazol-2-yl)-1-cyclopentyl-1-[(5-methyl-2-furyl)methyl]urea], the pIC50 (Homo sapiens, SK-OV-3, 24 h) is over 7.00.

`O=C(Nc1ccc(Cl)cc1)N(Cc1cnoc1)C1CCCC1` [Compound 63, 3-(4-chlorophenyl)-1-cyclopentyl-1-(isoxazol-4-ylmethyl)urea]: where the note is “Homo sapiens, SK-OV-3, 24 h”, the pIC50 was 5.30 to 6.00.

Take `Cc1ccc(CN(C(=O)Nc2ccc(Cl)cc2)c2ncccn2)o1` [Compound 327, 3-(4-chlorophenyl)-1-[(5-methyl-2-furyl)methyl]-1-pyrimidin-2-yl-urea]: where the note is “Homo sapiens, SK-OV-3, 24 h”, the pIC50 was 5.30 to 6.00.

`O=C(Nc1ccc(F)c(F)c1)N(Cc1nccs1)C1CCCC1` [Compound 37, 1-cyclopentyl-3-(3,4-difluorophenyl)-1-(thiazol-2-ylmethyl)urea]: the pIC50 (Homo sapiens, SK-OV-3, 24 h) was 5.30 to 6.00.

Take `N#Cc1ccc(CN(C(=O)Nc2ccccc2)C2CCCC2)o1` [Compound 60, 1-[(5-cyano-2-furyl)methyl]-1-cyclopentyl-3-phenyl-urea]: the pIC50 (Homo sapiens, SK-OV-3, 24 h) is 6.00 to 6.30.

For `Cc1ccc(CN(C(=O)Nc2ccc(Cl)cc2)c2cncn2C)o1` [Compound 242, 3-(4-chlorophenyl)-1-[(5-methyl-2-furyl)methyl]-1-(3-methylimidazol-4-yl) urea], the negative logarithm of the IC50 (pIC50) was 6.30 to 7.00.

In the case of `C#Cc1ccc(NC(=O)N(Cc2cc3ccccc3o2)C2CCCC2)cc1` [Compound 131, 1-(benzofuran-2-ylmethyl)-1-cyclopentyl-3-(4-ethynylphenyl)urea], under “Homo sapiens, SK-OV-3, 24 h”, the pIC50 was over 7.00.

On to `CC(c1cccc(C#N)c1)N(C(=O)Nc1ccc(Cl)cc1)C1CCCC1` (racemic) [Compound 173, 3-(4-chlorophenyl)-1-[1-(3-cyanophenyl)ethyl]-1-cyclopentyl-urea], for which the pIC50 (Homo sapiens, SK-OV-3, 24 h) is over 7.00.

Turning to `Cc1ccc(CN(C(=O)Nc2ccc(Cl)cc2)c2cnoc2)o1` [Compound 305, 3-(4-chlorophenyl)-1-isoxazol-4-yl-1-[(5-methyl-2-furyl)methyl]urea], the pIC50 (Homo sapiens, SK-OV-3, 24 h) was over 7.00.

On to `N#Cc1cc(CN(C(=O)Nc2ccc(F)cc2)C2CCCC2)ccc1F` [Compound 53, 1-[(3-cyano-4-fluoro-phenyl)methyl]-1-cyclopentyl-3-(4-fluorophenyl)urea], for which the pIC50 (Homo sapiens, SK-OV-3, 24 h) was 6.30 to 7.00.

`Cc1ccc(CN(C(=O)Nc2ccc(C#CCO)cc2)C2CCC2)o1` [Compound 297, 1-cyclobutyl-3-[4-(3-hydroxyprop-1-ynyl)phenyl]-1-[(5-methyl-2-furyl)methyl]urea]: under “Homo sapiens, SK-OV-3, 24 h”, the pIC50 is over 7.00.

For `Cc1nocc1N(CC1CCC2(CC1)COC2)C(=O)Nc1ccc(C#N)cc1` [Compound 325, 3-(4-cyanophenyl)-(3-methylisoxazol-4-yl)-1-(2-oxaspiro[3.5]nonan-7-ylmethyl)urea], the negative-log IC50 (pIC50) (Homo sapiens, SK-OV-3, 24 h) was under 5.30.

The values are drawn from patent US20210238139A1, “MODULATORS OF TRYPTOPHAN CATABOLISM” (E-Therapeutics PLC, priority 2018, published 2021).
